Legend:
[1] = system: HepG2 cells; assay: Apoptosis assay, Annexin V-FITC/PI flow cytometry; format: cell-based, human; conditions: 48 h; for early apoptotic phase (Q4): control 0.80%; for late apoptotic phase (Q2): control 4.59%
Source text: Moreover, in order to examine the effect of compound 17a on cell apoptosis (programed cell death), the morphological markers of apoptosis of the HepG2 cell line were examined before and after treatment with 17a. This assay is based on the fact that cells performing apoptosis translocate their phosphatidylserine (PS) phospholipid to the cell surface, which, in turn, can be easily detected by staining with a fluorescent conjugate of annexin V, followed by flow cytometry analysis. Concurrently, the HepG2 cells were stained with propidium iodide (PI), which enters only cells with damaged plasma membranes. This stain allows the discrimination between early apoptotic cells (positive for PS, but negative for PI) from late apoptotic and necrotic cells (positive for both PS and PI).
Apoptosis and necrosis cell populations were determined using an Annexin V-FITC apoptosis detection kit (Abcam Inc., Cambridge Science Park, Cambridge, UK) coupled with 2 fluorescent channels flowcytometry. After treatment with test compounds for 48 h, cells (10^5 cells) were collected by trypsinization and washed twice with ice-cold PBS (pH 7.4). Then, cells were incubated in the dark with 0.5 ml of Annexin V-FITC/PI solution for 30 min in the dark at room temperature, according to the manufacturer’s protocol. After staining, cells were injected via ACEA Novocyte™ flowcytometer (ACEA Biosciences Inc., San Diego, CA, USA) and analyzed for FITC and PI fluorescent signals using FL1 and FL2 signal detectors, respectively (λex/em 488/530 nm for FITC and λex/em 535/617 nm for PI). For each sample, 12,000 events were acquired, and positive FITC and/or PI cells were quantified by quadrant analysis and calculated using ACEA NovoExpress™ software (ACEA Biosciences Inc., San Diego, CA, USA).

[2] = system: HepG2 cells; assay: Analysis of cell cycle distribution, flow cytometry of propidium iodide-stained nuclei; format: cell-based, human; conditions: HepG2, 2 µM, 48 h
Description: Based on the promising antiproliferative activity and antiangiogenic activity of series 17, compound 17a was further assayed for its effect on the cell cycle distribution by flow cytometric analyses of propidium iodide-stained nuclei at 2 µM. Cell cycle parameters were compared for HepG2 cells with DMSO as control and after treatment with 17a and incubation for 48 h, and the results were depicted in Figure 8.
After treatment with test compounds for 48 h, cells (10^5 cells) were collected by trypsinization and washed twice with ice-cold PBS (pH 7.4). Cells were resuspended in two milliliters of 60% ice-cold ethanol and incubated at 4 °C for 1 h for fixation. Fixed cells were washed twice again with PBS (pH 7.4) and resuspended in 1 mL of PBS containing 50 µg/mL RNAase A and 10 µg/mL propidium iodide (PI). After 20 min of incubation in dark at 37 °C, cells were analyzed for DNA contents using flow cytometry analysis using an FL2 (λex/em 535/617 nm) signal detector (ACEA Novocyte™ flowcytometer, ACEA Biosciences Inc., San Diego, CA, USA). For each sample, 12,000 events were acquired. The cell cycle distribution was calculated using ACEA NovoExpress™ software (ACEA Biosciences Inc., San Diego, CA, USA).

CC(C)c1nc2ccccc2n1CC(=O)N/N=C/c1cccc(OCc2ccccc2)c1 [Compound 17a, (E)-N′-(3-(Benzyloxy)benzylidene)-2-(2-isopropyl-1H-benzo[d]imidazol-1-yl)acetohydrazide]
early apoptotic phase (Q4) ([1]; HepG2, 2 μM): 2.90% | late apoptotic phase (Q2) ([1]; HepG2, 2 μM): 8.89% | early apoptotic phase (Q4) ([1]; HepG2, 5 μM): 6.32% | late apoptotic phase (Q2) ([1]; HepG2, 5 μM): 9.53% | Freq S [2]: 26.96% | effect on the HepG2 cell cycle [2]: arrests the cell cycle at the G2/M phase | percent of cells accumulated in the G2 phase (Freq G2) ([2]; control 13.43%): 25.86% | percent of cell distribution in the G1 phase (Freq G1) ([2]; control 51.34%): 46.96%
